Laboratory results reported in ChEMBL document CHEMBL1131733, “Dual-acting agents with alpha1-adrenoceptor antagonistic and steroid 5alpha-reductase inhibitory activities. Synthesis and evaluation of arylpiperazine derivatives” (Bioorg Med Chem Lett, 1999).

Legend:
[1] = Antagonistic Alpha-1 adrenergic receptor activity against phenylephrine-induced contraction of rabbit prostate; assay type: functional, Oryctolagus cuniculus
[2] = biological target: T1, Steroid 5-alpha-reductase (Rattus norvegicus, UniProt P24008+P31214); test: Inhibition of Steroid 5-alpha-reductase from Dawley rat prostate; assay type: tissue-based, Prostate gland
T1 sequence (P24008 whole entry): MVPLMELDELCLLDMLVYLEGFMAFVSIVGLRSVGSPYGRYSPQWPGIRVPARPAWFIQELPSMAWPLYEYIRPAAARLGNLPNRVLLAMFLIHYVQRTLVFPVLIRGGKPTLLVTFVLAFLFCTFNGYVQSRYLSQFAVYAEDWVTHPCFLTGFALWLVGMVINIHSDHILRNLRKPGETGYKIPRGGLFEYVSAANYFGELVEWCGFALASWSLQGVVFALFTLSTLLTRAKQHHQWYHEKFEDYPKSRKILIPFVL
T1 sequence (P31214 whole entry): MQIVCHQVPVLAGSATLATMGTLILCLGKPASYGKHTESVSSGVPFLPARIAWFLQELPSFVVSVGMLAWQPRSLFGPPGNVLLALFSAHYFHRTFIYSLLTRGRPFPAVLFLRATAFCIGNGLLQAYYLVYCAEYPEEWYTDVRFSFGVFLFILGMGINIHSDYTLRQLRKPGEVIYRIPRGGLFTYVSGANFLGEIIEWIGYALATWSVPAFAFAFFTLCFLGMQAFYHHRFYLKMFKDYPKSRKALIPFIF

Oryctolagus cuniculus = test: Dose required to inhibit increase in urethral pressure induced by phenylephrine in anesthetized rabbits by iv administration; assay type: functional
[3] = biological target: Steroid 5-alpha-reductase (Rattus norvegicus) (UniProt P24008+P31214); test: Inhibitory effect on prostatic Steroid 5-alpha-reductase, 2 hours after oral administration

Row | SMILES | pA2 [1] | IC50 [2] | Dose (Oryctolagus cuniculus) | ED50 [3]
1 | COc1ccccc1N1CCN(CCCOc2ccc(C(=O)Nc3ccccc3OCCCC(=O)O)cc2OCc2ccccc2)CC1 | 7.2 | 3500 nM |  | 
2 | COc1ccccc1N1CCN(CCC(Oc2ccc(C(=O)Nc3ccccc3OCCCC(=O)O)cc2)c2ccccc2)CC1 (centres undefined) | 7.6 | 920 nM |  | 
3 | COc1ccccc1N1CCN(CCC(Oc2ccc(C(=O)Nc3ccccc3OCCCC(=O)O)cc2)c2ccc(C)cc2)CC1 (centres undefined) | 7.8 |  |  | 
4 | CCOc1ccccc1N1CCN(CCCOc2cc(C(=O)c3cn(CCCC(=O)O)c4ccccc34)ccc2OCc2ccc(C)cc2)CC1 | 7.5 | 1.5 nM | 0.3 mg/kg | 7.9 mg/kg
5 | COc1ccccc1N1CCN(CCCCOc2cc(C(=O)c3cn(CCCC(=O)O)c4ccccc34)ccc2OCc2ccc(C)cc2)CC1 | 6.7 | 1.5 nM |  | 
6 | CCCOc1ccccc1N1CCN(CCCOc2cc(C(=O)c3cn(CCCC(=O)O)c4ccccc34)ccc2OCc2ccc(C)cc2)CC1 | 6.8 | 3 nM |  | 
7 | COc1ccccc1N1CCN(CCCOc2cc(C(=O)c3cn(CCCC(=O)O)c4ccccc34)ccc2OCc2ccccc2)CC1 | 7.8 | 11 nM |  | 
8 | COc1ccccc1N1CCN(CCCOc2cc(C(=O)Nc3ccccc3OCCCC(=O)O)ccc2OCc2ccccc2)CC1 | 8 | 490 nM |  | 
9 | COc1ccccc1N1CCN(CCCOc2cc(C(=O)c3cn(CCCC(=O)O)c4ccccc34)ccc2OCc2ccc(C)cc2)CC1 | 7.7 | 3.5 nM |  | 
10 | COc1ccccc1N1CCN(CCOc2cc(C(=O)c3cn(CCCC(=O)O)c4ccccc34)ccc2OCc2ccc(C)cc2)CC1 | 6.8 | 4.8 nM |  | 
11 | CCc1ccc(COc2ccc(C(=O)c3cn(CCCC(=O)O)c4ccccc34)cc2OCCCN2CCN(c3ccccc3OC)CC2)cc1 | 6.6 | 4 nM |  | 
12 | COc1ccccc1N1CCN(CCCNc2cc(=O)n(C)c(=O)n2C)CC1 | 7.1 |  |  | 
13 | CC(C)Cc1ccc(C(Nc2cccc(C(=O)c3cn(CCCC(=O)O)c4ccccc34)c2)c2ccc(CC(C)C)cc2)cc1 |  | 4.2 nM |  | 
14 | COc1ccccc1N1CCN(CCCOc2ccc(C(=O)c3cn(CCCC(=O)O)c4ccccc34)cc2OCc2ccccc2)CC1 | 7 | 360 nM |  | 
15 | Cc1ccc(COc2ccc(C(=O)c3cn(CCCC(=O)O)c4ccccc34)cc2OCCCN2CCN(c3ccccc3OC(C)C)CC2)cc1 | 6.8 | 2.9 nM |  | 
